Measurements from PubChem BioAssay (NCI).
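Following 48 hours of exposure in 96-well plates, responses at five concentrations were used to interpolate endpoints linearly. Here, GI50 denotes the concentration required for 50% inhibition of growth. At the TGI there is no net growth.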

How the values were obtained:
Test in all cases: inhibition of tumour cell growth, NCI panel, 48 h
786-0 renal = test system: 786-0 renal
A498 renal = test system: A498 renal
A549 NSCLC = test system: A549 NSCLC
ACHN renal = test system: ACHN renal
BT-549 breast = test system: BT-549 breast
CAKI-1 renal = test system: CAKI-1 renal
CCRF-CEM leukemia = test system: CCRF-CEM leukemia
COLO 205 colon = test system: COLO 205 colon
DU-145 prostate = test system: DU-145 prostate
EKVX NSCLC = test system: EKVX NSCLC
HCC-2998 colon = test system: HCC-2998 colon
HCT-116 colon = test system: HCT-116 colon
HCT-15 colon = test system: HCT-15 colon
HL-60(TB) leukemia = test system: HL-60(TB) leukemia
HOP-62 NSCLC = test system: HOP-62 NSCLC
HOP-92 NSCLC = test system: HOP-92 NSCLC
HS 578T breast = test system: HS 578T breast
HT29 colon = test system: HT29 colon
IGROV1 ovarian = test system: IGROV1 ovarian
K-562 leukemia = test system: K-562 leukemia
KM12 colon = test system: KM12 colon
LOX IMVI melanoma = test system: LOX IMVI melanoma
M14 melanoma = test system: M14 melanoma
MALME-3M melanoma = test system: MALME-3M melanoma
MCF7 breast = test system: MCF7 breast
MDA-MB-231 breast = test system: MDA-MB-231 breast
MDA-MB-435 = test system: MDA-MB-435
MDA-MB-468 breast = test system: MDA-MB-468 breast
MOLT-4 leukemia = test system: MOLT-4 leukemia
NCI-H226 lung = test system: NCI-H226 lung
NCI-H23 lung = test system: NCI-H23 lung
NCI-H460 lung = test system: NCI-H460 lung
NCI-H522 lung = test system: NCI-H522 lung
OVCAR-3 ovarian = test system: OVCAR-3 ovarian
OVCAR-4 ovarian = test system: OVCAR-4 ovarian
OVCAR-5 ovarian = test system: OVCAR-5 ovarian
OVCAR-8 ovarian = test system: OVCAR-8 ovarian
PC-3 prostate = test system: PC-3 prostate
RPMI-8226 leukemia = test system: RPMI-8226 leukemia
RXF 393 renal = test system: RXF 393 renal
SF-268 CNS = test system: SF-268 CNS
SF-295 CNS = test system: SF-295 CNS
SF-539 CNS = test system: SF-539 CNS
SK-MEL-28 melanoma = test system: SK-MEL-28 melanoma
SK-MEL-5 melanoma = test system: SK-MEL-5 melanoma
SK-OV-3 ovarian = test system: SK-OV-3 ovarian
SN12C renal = test system: SN12C renal
SNB-19 CNS = test system: SNB-19 CNS
SNB-75 CNS = test system: SNB-75 CNS
SR leukemia = test system: SR leukemia
SW-620 colon = test system: SW-620 colon
T-47D breast = test system: T-47D breast
TK-10 renal = test system: TK-10 renal
U251 CNS = test system: U251 CNS
UACC-257 melanoma = test system: UACC-257 melanoma
UACC-62 melanoma = test system: UACC-62 melanoma
UO-31 renal = test system: UO-31 renal

## CC(C)Sc1nc(NCCc2c[nH]c3ccccc23)c(C#N)c(-c2ccccc2)n1
786-0 renal
  GI50: 12.6 µM
  TGI: 30.5 µM
A498 renal
  GI50: 15.1 µM
  TGI: 29.5 µM
A549 NSCLC
  GI50: 18.4 µM
  TGI: 42.5 µM
ACHN renal
  GI50: 14.3 µM
  TGI: 28 µM
BT-549 breast
  GI50: 13.2 µM
  TGI: 26.6 µM
CAKI-1 renal
  GI50: 11.2 µM
  TGI: 26 µM
CCRF-CEM leukemia
  GI50: 9.41 µM
  TGI: > 100 µM
COLO 205 colon
  GI50: 8.37 µM
  TGI: 21.2 µM
DU-145 prostate
  GI50: 14.9 µM
  TGI: 34.8 µM
EKVX NSCLC
  GI50: 12.1 µM
  TGI: 31.1 µM
HCC-2998 colon
  GI50: 10 µM
  TGI: 22.6 µM
HCT-116 colon
  GI50: 5.17 µM
  TGI: 18.5 µM
HCT-15 colon
  GI50: 5.38 µM
  TGI: 18.2 µM
HL-60(TB) leukemia
  GI50: 13.5 µM
  TGI: > 100 µM
HOP-62 NSCLC
  GI50: 13.5 µM
  TGI: 27.8 µM
HOP-92 NSCLC
  GI50: 14.7 µM
  TGI: 33.7 µM
HS 578T breast
  GI50: 14.8 µM
  TGI: 56.1 µM
HT29 colon
  GI50: 5.57 µM
  TGI: 18.9 µM
IGROV1 ovarian
  GI50: 16.6 µM
  TGI: 32 µM
K-562 leukemia
  GI50: 4.85 µM
  TGI: > 100 µM
KM12 colon
  GI50: 5.54 µM
  TGI: 22.1 µM
LOX IMVI melanoma
  GI50: 4.57 µM
  TGI: 15.3 µM
M14 melanoma
  GI50: 13.8 µM
  TGI: 28.4 µM
MALME-3M melanoma
  GI50: 16.5 µM
  TGI: 30.7 µM
MCF7 breast
  GI50: 11.3 µM
  TGI: 25.4 µM
MDA-MB-231 breast
  GI50: 11.8 µM
  TGI: 27.3 µM
MDA-MB-435
  GI50: 14.4 µM
  TGI: 28.2 µM
MDA-MB-468 breast
  GI50: 3.12 µM
  TGI: 9.98 µM
MOLT-4 leukemia
  GI50: 9.21 µM
  TGI: > 100 µM
NCI-H226 lung
  GI50: 13 µM
  TGI: 27.3 µM
NCI-H23 lung
  GI50: 15.5 µM
  TGI: 30.7 µM
NCI-H460 lung
  GI50: 8.41 µM
  TGI: 27.9 µM
NCI-H522 lung
  GI50: 15.3 µM
  TGI: 30.9 µM
OVCAR-3 ovarian
  GI50: 15.8 µM
  TGI: 30.8 µM
OVCAR-4 ovarian
  GI50: 13.4 µM
  TGI: 36.4 µM
OVCAR-5 ovarian
  GI50: 12.1 µM
  TGI: 25.2 µM
OVCAR-8 ovarian
  GI50: 18.2 µM
  TGI: 51.4 µM
PC-3 prostate
  GI50: 7.08 µM
  TGI: 43.8 µM
RPMI-8226 leukemia
  GI50: 11.4 µM
  TGI: > 100 µM
RXF 393 renal
  GI50: 6.66 µM
  TGI: 20.3 µM
SF-268 CNS
  GI50: 18.4 µM
  TGI: 48.3 µM
SF-295 CNS
  GI50: 13.7 µM
  TGI: 29.6 µM
SF-539 CNS
  GI50: 13 µM
  TGI: 27 µM
SK-MEL-28 melanoma
  GI50: 14.4 µM
  TGI: 28.6 µM
SK-MEL-5 melanoma
  GI50: 11.4 µM
  TGI: 23.6 µM
SK-OV-3 ovarian
  GI50: 17.5 µM
  TGI: 45.4 µM
SN12C renal
  GI50: 13.3 µM
  TGI: 26.2 µM
SNB-19 CNS
  GI50: 15.8 µM
  TGI: 33.3 µM
SNB-75 CNS
  GI50: 17.8 µM
  TGI: 56.9 µM
SR leukemia
  GI50: 5.25 µM
  TGI: > 100 µM
SW-620 colon
  GI50: 10.3 µM
  TGI: 26 µM
T-47D breast
  GI50: 6.54 µM
  TGI: 20.8 µM
TK-10 renal
  GI50: 22.8 µM
  TGI: 46.8 µM
U251 CNS
  GI50: 11.6 µM
  TGI: 24.4 µM
UACC-257 melanoma
  GI50: 18.8 µM
  TGI: 41.8 µM
UACC-62 melanoma
  GI50: 14.4 µM
  TGI: 27.6 µM
UO-31 renal
  GI50: 14.3 µM
  TGI: 31.2 µM
